The structures appear in SMILES notation. Where “and” joins values, the source holds several entries; their conditions need not be identical. Equal entries are not always repeated. Entries after “also recorded” stand apart in the source; their conditions may differ.

This note sets out measurements from patent US20030162759A1, “Aldosterone blocker therapy to prevent or treat inflammation-related disorders” (priority 2000, published 2003).

Common to all, as to format: in vivo, rat
The test system of assay [1] is angiotensin II infused rats. As to the kind of experiment: Assay A angiotensin II infusion model: heart histology (coronary vascular inflammation, myocardial injury). The following applies: for Vascular inflammation and myocardial injury in the heart: angiotensin II infused rats, aldosterone given to adrenalectomized rats.
In the next assay the test system is hydroxyproline. As to the kind of experiment: Assay C: myocardial hydroxyproline assay. The following applies: for Hydroxyproline, Mean: group mean; for Hydroxyproline: individual rats. The method, then:
The procedure of Assay B was expanded upon in a further study. […] Myocardial tissue from animals in each treatment group was examined after 7, 14, or 30 days of treatment. […] Lesions were preceded by the expression and progressive upregulation of proinflammatory molecules. […] Prior to surgery the animals were individually weighed and placed in one of the following groups: […] Potassium chloride supplementation was added to the saline solution in order to prevent the potential hypokalemia associated with aldosterone excess. […] Louis, Mo.) was inserted subcutaneously at the nape of the neck. Aldosterone was administered at a dose of […]. […] Animals were sacrificed from each group (n=8-13) after 7, 14, or 30 days of treatment. Following exsanguination, hearts and kidneys were isolated, removed, rinsed in cold phosphate-buffered saline, and blotted dry. […] Myocardial hydroxyproline concentration was measured by a colorimetric assay that quantifies the reaction between oxidized hydroxyproline, and p-dimethylaminobenzaldehyde as described previously (4). […] Dried tissues and a positive collagen control (Bovine Collagen Type I, Sigma, St. […] T. Baker, Phillipsburg, N.J.) for 5 min at 25° C. […] Samples were incubated at 60° C. for 30 min, cooled to room temperature, and absorbance was monitored at 558 nm. Hydroxyproline content was quantitated from a freshly prepared standard curve of trans-4-hydroxy-L-proline (Sigma, St. Louis, Mo.). All samples and standards were performed in duplicate.

Assay [2] deals with Intercellular Adhesion Molecule-1 (ICAM-1). Kind of assay: Assay C: ICAM-1 relative mRNA expression in heart (TaqMan). The note with it: for ICAM, Mean / ICAM: mRNA; for ICAM, Mean: group mean; for ICAM: individual rats; for ICAM-1 mRNA expression in myocardium: time course 7, 14, 30 days, eplerenone 100 mg/kg/day. The method, then: The procedure of Assay B was expanded upon in a further study. […] Myocardial tissue from animals in each treatment group was examined after 7, 14, or 30 days of treatment.
Potassium chloride supplementation was added to the saline solution in order to prevent the potential hypokalemia associated with aldosterone excess.
At the time of the surgery, an Alzet 2002 osmotic minipump (Alza Corp., Palo Alto, Calif.) containing either vehicle (9% ethanol/87% propylene glycol/4% dH2O) or 1.0 mg/mL d-aldosterone (Sigma Chemical, St. Louis, Mo.) was inserted subcutaneously at the nape of the neck. Aldosterone was administered at a dose of 0.75 g/hour. […] Animals were sacrificed from each group (n=8-13) after 7, 14, or 30 days of treatment.
The fluorogenic 5′-nuclease assay (TaqMan PCR) using Applied Biosystems' 7700 Sequence Detection System (Applied Biosystems, Foster City, Calif.) allowed for real time detection/quantitation of a specific gene by monitoring the increase in fluorescence of a gene-specific, dye-labeled oligonucleotide probe. Probes for target and reference genes were labeled at the 5′-end with a 6-carboxyfluorescein (6FAM) reporter dye and at the 3′-end with a 6-carboxy-N,N,N′,N′-tetramethylrhodamine (TAMRA) quencher dye. When the probe was annealed to the target gene, fluorescence of 6FAM was prevented by the close proximity of TAMRA. The exonuclease activity of Taq polymerase released the dyes from the oligonucleotide probe by displacing the probe from the target sequence resulting in fluorescence excitation in direct proportion to the amount of target message present. Data analysis was performed using the Sequence Detection System software from Applied Biosystems.
All primers and probes were designed using Primer Express software supplied with the 7700 Sequence Detection System and synthesized by Applied Biosystems. Standard curves using 5-fold dilutions of total RNA (from 200 ng to 320 pg) were performed to determine the efficiency of each primer/probe set in the TaqMan reaction prior to the analysis of the experimental samples. Primer/probe sets were designed from known sequences of rat genes to be analyzed. All target gene values were normalized to a reference gene, constitutively expressed cyclophilin. Primer/probe set sequences can be found in Table 8.
RNA was extracted from frozen (−80° C.) rat heart tissue using the Totally RNA Isolation Kit (Ambion, Inc., Austin, Tex.). Tissue was crushed using a stainless steel mortar and pestle, which had been chilled to −80° C. and transferred to a dounce homogenizer (Kontes, Vineland, N.J.) containing 3-10 mL cold denaturation buffer. Tissue was homogenized and transferred to a sterile, 15 mL polypropylene centrifuge tube. An equal volume of phenol:chloroform:isoamyl alcohol (25:24:1) was added, samples were shaken vigorously for 1 min, and incubated on ice for at least 15 min. Samples were centrifuged for 30 min at 10,000 g. The aqueous phase was removed, 1/10 volume of a sodium acetate solution (3.0 M NaOAc pH 4.5) was added, samples were shaken or inverted for 10 seconds, and acid-phenol (premixed with isoamyl alcohol):chloroform (5:1, Ambion, Inc.) was added at an volume equivalent to the starting sample volume. Samples were shaken vigorously for 1 min, followed by a 15-min incubation on ice, and centrifuged for 30 min at 10,000 g. The aqueous phase removed and placed in a clean polypropylene tube. An equal volume of isopropanol (Sigma, St. Louis, Mo.) was added and the samples were mixed and incubated overnight at −20° C. The samples were centrifuged for 30 min at 10,000 g, the supernatant was removed and the RNA pellet was resuspended in DNAse/RNAse-free water. Samples were frozen at −80° C. for at least 2 hours, thawed on wet ice, and diluted for quantitation.
In general terms: Real-time PCR tracks product formation cycle by cycle.

On to `COC(=O)[C@@H]1CC2=CC(=O)CC[C@]2(C)[C@@]23O[C@@H]2C[C@@]2(C)[C@@H](CC[C@@]24CCC(=O)O4)[C@H]13` [eplerenone, Pregn-4-ene-7,21-dicarboxylic acid, 9,11-epoxy-17-hydroxy-3-oxo-, γ-lactone, methyl ester, (7α, 11α, 17β) -], for which, in assay [1], the “Vascular inflammation and myocardial injury in the heart” value is “prevention by eplerenone (epoxymexrenone) of vascular inflammation in the heart”. In addition, in assay [1] (out of ten animals per group, angiotensin II/salt, 4 weeks, eplerenone 100 mpk), the “Animals with vascular inflammatory lesions in the coronary arteries” value is given as “only one of the ten”. Further, the “Hydroxyproline, Mean” value in the assay on hydroxyproline (14 days of treatment) was 4.46 µg/mg; in the assay with hydroxyproline (30 days of treatment) it was 4.10 µg/mg. Further, the Hydroxyproline in the assay with hydroxyproline (14 days of treatment, eplerenone 100 mg/kg/day, listed as Eplerenone + aldosterone + salt) is 6.80 µg/mg; with hydroxyproline (30 days of treatment, eplerenone 100 mg/kg/day, listed as Eplerenone + aldosterone + salt), 6.40 µg/mg. Further, the figures for the “ICAM, Mean” value in assay [2] (7 days of treatment), in assay [2] (14 days of treatment) and in assay [2] (30 days of treatment) were 0.83 AU, 1.19 AU and 1.22 AU, respectively. Also, the ICAM in assay [2] (7 days of treatment, listed as Eplerenone + aldosterone + salt) was 0.91 AU and 0.89 AU (2×) and 0.40 AU and 0.58 AU and 1.00 AU; in assay [2] (14 days of treatment, listed as Eplerenone + aldosterone + salt) it was 1.20 AU and 0.95 AU and 1.26 AU and 1.56 AU and 0.98 AU (2×) and 0.79 AU and 0.83 AU; in assay [2] (30 days of treatment, listed as Eplerenone + aldosterone + salt), 1.21 AU and 1.26 AU and 0.60 AU and 0.99 AU. For the same compound, the “ICAM-1 mRNA expression in myocardium” value in assay [2] was “significantly reduced; also recorded: inhibition of early time-course expression of myocardial ICAM-1 and VCAM-1”.

As for `C[C@]12CCC(=O)C=C1CC[C@@H]1[C@@H]2[C@@H](O)C[C@]2(C=O)[C@@H](C(=O)CO)CC[C@@H]12` [aldosterone], in assay [1], the “Vascular inflammation and myocardial injury in the heart” value was “restored the severe coronary and myocardial inflammation and injury”. Besides, the Hydroxyproline in the assay with hydroxyproline (Table 9.14, 7-day protocol, myocardial, listed as Aldosterone + salt) was 2.10 µg/mg; in the assay on hydroxyproline (14 days of treatment, eplerenone 100 mg/kg/day, listed as Aldosterone + salt), 2.60 µg/mg and 3.00 µg/mg; in the assay with hydroxyproline (30 days of treatment, eplerenone 100 mg/kg/day, listed as Aldosterone + salt), 4.00 µg/mg. Moreover, the entries for the “ICAM, Mean” value in assay [2] (14 days of treatment) and in assay [2] (30 days of treatment) were 1.47 AU and 1.81 AU, respectively. Further, the ICAM in assay [2] (7 days of treatment, listed as Aldosterone + salt) was 1.39 AU and 0.80 AU and 1.68 AU; in assay [2] (14 days of treatment, listed as Aldosterone + salt) it was 1.16 AU; in assay [2] (30 days of treatment, listed as Aldosterone + salt), 1.50 AU. The “ICAM-1 mRNA expression in myocardium” value in assay [2] was “upregulated at day 14 and 30”.
